Here are results for 29 compounds from patent publication USRE50050E1, “Pyrimidinedione compounds” (MyoKardia, Inc., priority 2013, dated 2024).

SMILES strings stand for the structures. Where only a bound is given, the exact number is not on record here.

In one assay the target is T1, bovine cardiac myosin (Bos taurus, UniProt Q9BE39).
T1 construct: The source of cardiac myosin was from bovine heart in the form of skinned myofibrils; from tissue; host or cells: bovine heart, skinned myofibrils
T1 sequence (Q9BE39 whole entry): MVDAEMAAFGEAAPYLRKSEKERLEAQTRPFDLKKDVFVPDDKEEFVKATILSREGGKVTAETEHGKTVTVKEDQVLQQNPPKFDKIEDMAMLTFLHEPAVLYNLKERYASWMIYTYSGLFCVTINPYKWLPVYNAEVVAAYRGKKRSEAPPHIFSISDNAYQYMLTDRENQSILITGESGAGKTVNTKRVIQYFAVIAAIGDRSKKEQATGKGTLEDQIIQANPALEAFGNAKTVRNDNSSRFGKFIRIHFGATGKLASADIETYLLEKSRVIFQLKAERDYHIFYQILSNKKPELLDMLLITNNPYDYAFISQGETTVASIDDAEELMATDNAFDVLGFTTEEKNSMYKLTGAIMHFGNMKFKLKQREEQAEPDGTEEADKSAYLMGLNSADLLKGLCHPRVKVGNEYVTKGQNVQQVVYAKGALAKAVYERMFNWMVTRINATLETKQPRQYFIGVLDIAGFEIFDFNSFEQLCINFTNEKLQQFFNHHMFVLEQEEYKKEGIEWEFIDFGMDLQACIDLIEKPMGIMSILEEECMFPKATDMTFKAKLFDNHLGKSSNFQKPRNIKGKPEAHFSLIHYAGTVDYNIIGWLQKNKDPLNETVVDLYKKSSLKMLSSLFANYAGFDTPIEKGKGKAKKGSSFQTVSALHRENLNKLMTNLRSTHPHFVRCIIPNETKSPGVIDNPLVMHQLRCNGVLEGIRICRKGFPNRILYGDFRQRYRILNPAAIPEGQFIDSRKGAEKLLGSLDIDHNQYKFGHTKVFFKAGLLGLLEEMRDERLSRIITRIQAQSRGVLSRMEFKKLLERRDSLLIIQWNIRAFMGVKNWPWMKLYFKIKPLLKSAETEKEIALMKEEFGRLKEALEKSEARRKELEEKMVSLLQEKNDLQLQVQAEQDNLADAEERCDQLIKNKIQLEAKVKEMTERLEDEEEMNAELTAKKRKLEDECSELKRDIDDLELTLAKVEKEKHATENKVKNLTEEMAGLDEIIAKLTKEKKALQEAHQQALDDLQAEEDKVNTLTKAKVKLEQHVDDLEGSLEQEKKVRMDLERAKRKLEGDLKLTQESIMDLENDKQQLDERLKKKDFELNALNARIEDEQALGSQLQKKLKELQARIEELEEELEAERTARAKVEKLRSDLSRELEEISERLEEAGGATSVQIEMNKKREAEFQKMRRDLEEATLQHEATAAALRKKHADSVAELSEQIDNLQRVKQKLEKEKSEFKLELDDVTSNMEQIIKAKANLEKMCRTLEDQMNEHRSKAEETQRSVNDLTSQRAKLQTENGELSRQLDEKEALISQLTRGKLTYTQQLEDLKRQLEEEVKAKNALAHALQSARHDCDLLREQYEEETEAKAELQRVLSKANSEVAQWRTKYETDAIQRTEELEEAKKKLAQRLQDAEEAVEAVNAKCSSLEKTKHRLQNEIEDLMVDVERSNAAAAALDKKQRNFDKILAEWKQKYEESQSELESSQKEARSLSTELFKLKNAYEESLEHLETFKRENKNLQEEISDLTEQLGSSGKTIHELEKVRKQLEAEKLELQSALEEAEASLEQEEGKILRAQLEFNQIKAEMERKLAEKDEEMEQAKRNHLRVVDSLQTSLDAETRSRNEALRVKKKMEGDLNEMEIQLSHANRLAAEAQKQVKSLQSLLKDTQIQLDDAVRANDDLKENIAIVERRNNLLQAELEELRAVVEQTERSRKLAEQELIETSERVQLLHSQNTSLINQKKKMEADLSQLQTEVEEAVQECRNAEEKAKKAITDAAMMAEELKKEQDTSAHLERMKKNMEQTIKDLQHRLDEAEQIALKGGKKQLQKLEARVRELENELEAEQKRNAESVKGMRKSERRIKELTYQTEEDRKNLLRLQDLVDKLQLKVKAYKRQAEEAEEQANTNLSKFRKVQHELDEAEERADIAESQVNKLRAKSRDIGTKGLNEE
T1 sequence (P85100 whole entry partner): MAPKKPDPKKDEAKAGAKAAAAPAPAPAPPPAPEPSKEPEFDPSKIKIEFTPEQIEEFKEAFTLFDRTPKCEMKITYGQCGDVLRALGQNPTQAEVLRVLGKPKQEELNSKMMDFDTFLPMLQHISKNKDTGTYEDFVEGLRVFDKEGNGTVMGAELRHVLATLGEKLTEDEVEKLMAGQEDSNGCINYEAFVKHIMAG
T1 sequence (Q3SZE5 whole entry partner): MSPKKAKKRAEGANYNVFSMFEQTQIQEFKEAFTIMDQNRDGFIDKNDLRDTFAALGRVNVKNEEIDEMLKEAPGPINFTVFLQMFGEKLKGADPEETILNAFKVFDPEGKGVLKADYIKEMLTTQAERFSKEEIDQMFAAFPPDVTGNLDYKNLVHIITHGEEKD
Briefly: Myosin inhibition assay (PK/LDH-coupled ATPase, bovine cardiac myofibrils).
Conditions: not given
Format: biochemical.
`CC(C)n1c(=O)cc(N[C@@H](C)Cc2ccc(F)cc2)[nH]c1=O` [Compound 51, (S)-6-((1-(4-fluorophenyl)propan-2-yl)amino)-3-isopropylpyrimidine-2,4(1H,3H)-dione] had an IC50 of 1 to 15 µM.

The same assay, now with this note: bovine cardiac myofibrils, calcium giving 50% activation (pCa50); read-out: Biochemical Activity (pCa50).
On to `C[C@H](Nc1cc(=O)n(C(C)(C)C)c(=O)[nH]1)c1ccccc1` [Compound 101], for which the IC50 is 1 to 15 µM. For the compound `CCn1c(=O)cc(N[C@H](c2ccccc2)C2CC2)[nH]c1=O` [Compound 122], the IC50 lay within 1 to 15 µM. As for `CC(C)n1c(=O)cc(N[C@@H](C)c2ccccc2Cl)[nH]c1=O` [Compound 120], the IC50 is less than 1 µM. Same read-out and setting: next, `C[C@H](Nc1cc(=O)n(CC2CC2)c(=O)[nH]1)c1cccc(Cl)c1` [Compound 127]: less than 1 µM; `C[C@H](Nc1cc(=O)n(C2(C(F)(F)F)CC2)c(=O)[nH]1)c1ccccc1` [Compound 117]: less than 1 µM. The same measure, in the same setting: next, `CC[C@H](Nc1cc(=O)n([C@@H](C)C(F)(F)F)c(=O)[nH]1)c1ccccc1` [Compound 103]: less than 1 µM; `C[C@H](Nc1cc(=O)n(-c2ccccn2)c(=O)[nH]1)c1ccccc1` [Compound 38]: less than 1 µM. In the case of `C[C@H](Nc1cc(=O)n(C2CCC2)c(=O)[nH]1)c1ccc(F)cc1` [Compound 132], the IC50 is less than 1 µM. On the same count and under the same terms, next, `CCCn1c(=O)cc(N[C@@H](C)c2cccc(C(F)(F)F)c2)[nH]c1=O` [Compound 131]: less than 1 µM; `C[C@@H](Cc1ccc(F)cc1)Nc1cc(=O)n(-c2cc(F)cc(F)c2)c(=O)[nH]1` [Compound 118]: less than 1 µM. Same read-out and setting: in the case of `C[C@H](Nc1cc(=O)n([C@@H](C)C2CC2)c(=O)[nH]1)c1ccccc1` [Compound 105] it was less than 1 µM. The same measure, in the same setting: next, `C[C@H](Nc1cc(=O)n(CC2CC2)c(=O)[nH]1)c1cccc(C(F)(F)F)c1` [Compound 126]: 1 to 15 µM. Take `CCn1c(=O)cc(N[C@@H](C)c2ccc3c(c2)OCO3)[nH]c1=O` [Compound 108]: the IC50 was less than 1 µM.

Still in this assay, the particulars now being: bovine cardiac myofibrils, calcium giving 75% activation (pCa75); read-out: Biochemical Activity (pCa75).
On to `CC(C)n1c(=O)cc(N[C@H](c2ccccc2)C(F)(F)F)[nH]c1=O` [Compound 52, (R)-3-isopropyl-6-((2,2,2-trifluoro-1-phenylethyl)amino)pyrimidine-2,4(1H,3H)-dione], for which the IC50 is less than 1 µM.

Take `CC[C@H](Nc1[nH]c(=O)n(C(C)C)c(=O)c1F)c1ccccc1` [Compound 31]: the IC50 is less than 1 µM. Take `CC(C)n1c(=O)cc(N[C@@H](C)c2cc(F)ccc2F)[nH]c1=O` [Compound 34]: the IC50 was less than 1 µM.

Consider `C[C@H](Nc1cc(=O)n(C)c(=O)[nH]1)c1ccccc1` [Compound 47], for which the IC50 fell in the range of 1 to 15 µM. Same read-out and setting: next, `C[C@H](Nc1cc(=O)n(C2CCN(C(=O)c3ccccc3)CC2)c(=O)[nH]1)c1ccccc1` [Compound 84]: less than 1 µM; `CC[C@H](Nc1cc(=O)n(C(C)C)c(=O)[nH]1)c1ccccc1` [Compound 24]: less than 1 µM; `Cc1c(N[C@@H](C)c2ccccc2)[nH]c(=O)n(C(C)C)c1=O` [Compound 25]: greater than 15 µM. As to `C[C@H](Nc1cc(=O)n(-c2ccno2)c(=O)[nH]1)c1ccccc1` [Compound 40], the IC50 is less than 1 µM. Consider `C[C@H](Nc1cc(=O)n(-c2ccccn2)c(=O)[nH]1)c1ccccc1` [Compound 38], for which the IC50 was less than 1 µM. Still for that read-out and setting: next, `COc1cccc([C@H](C)Nc2[nH]c(=O)n(C(C)C)c(=O)c2F)c1` [Compound 33]: less than 1 µM; `CCC(CC)n1c(=O)cc(N[C@@H](C)c2ccccc2)[nH]c1=O` [Compound 83]: less than 1 µM; `C[C@H](Nc1cc(=O)n(-c2cnccn2)c(=O)[nH]1)c1ccccc1` [Compound 75]: 1 to 15 µM.

As to `CC(C)n1c(=O)cc(N[C@@H](C)c2cccc(-n3cncn3)c2)[nH]c1=O` [Compound 41], the IC50 was less than 1 µM.

For the compound `COc1ccccc1[C@H](C)Nc1cc(=O)n(C(C)C)c(=O)[nH]1` [Compound 22], the IC50 was 1 to 15 µM. Regarding `CCC[C@H](Nc1cc(=O)n(C(C)C)c(=O)[nH]1)c1ccccc1` [Compound 78], the IC50 is less than 1 µM.

Consider `C[C@H](Nc1cc(=O)n(-c2cnn(C)c2)c(=O)[nH]1)c1ccccc1` [Compound 77], for which the IC50 lay within 1 to 15 µM.
